From PMC8880098, “Synthesis, Antibacterial Evaluation, and Computational Studies of a Diverse Set of Linezolid Conjugates” (Pharmaceuticals, 2022)
In brackets after ≈: the same amount, converted by molar mass. Like-named read-outs stand apart in the source and are kept apart here.

Assays:
[1] = system: Bacillus subtilis ATCC 6633; experiment: Antibacterial MIC, microdilution susceptibility test (CLSI); format: cell-based
Excerpt: (§1) The synthesized linezolid conjugates (3a–k, 5a–f, 7a–c, 9a–c, 11a–f, 13, and 15) were subjected for antimicrobial properties determination against Gram-positive (Staphylococcus aureus ATCC 6538, Bacillus subtilis ATCC 6633) and Gram-negative (Pseudomonas aeruginosa ATCC 15692, Escherichia coli ATCC 47076) bacteria by the standard technique.
(§2) Antibacterial properties of the synthesized compounds (3a–k, 5a–f, 7a–c, 9a–c, 11a–f, 13 and 15) were screened against Gram-positive (Staphylococcus aureus ATCC 6538, Bacillus subtilis ATCC 6633) and Gram-negative (Pseudomonas aeruginosa ATCC 15,692 and Escherichia coli ATCC 47076) bacteria utilizing the standard technique. Linezolid was used as a standard reference/drug in the current study. The tested bacterial strains were obtained from MERCIN Center, Faculty of Agriculture, Ain Shams University, Cairo, Egypt.
(§3) To determine the antibacterial activity, stock solutions of the tested compounds and standard reference were prepared with up to 100% DMSO and stored at […]. If necessary, the solutions were heated to 40–60 °C before testing to facilitate complete dissolution. Double distilled water was used in all dilutions prepared. […] A microdilution susceptibility test was used for MIC determination (Mueller–Hinton broth in 96-well plates) according to the CLSI (the Clinical and Laboratory Standards Institute, Malvern, PA, USA). The bacterial inoculum was adjusted to approximately 2.5–3 × 10^4 cells/mL in Mueller–Hinton broth and incubated in a ratio of 1:1 with the test derivatives in polystyrene 96-well flat-bottom microplates. Positive growth control (without test derivatives) and negative control (without bacteria) were included. The microplates were placed in an incubator set to 37 °C for 24 h. Absorbance was measured at 620 nm at the end of the incubation period. The cut-off level for follow-up studies was defined as a minimum of 90% inhibition of growth compared to the untreated sample. Experiments were conducted once in triplicate. For selected compounds, minimum inhibitory concentration (MIC) values were determined by dose–response experiments. Experiments were performed at least twice, in triplicate per concentration tested.

[2] = system: Escherichia coli ATCC 47076; experiment: as above; format: cell-based
Excerpt: as §1, §2, §3

[3] = system: Pseudomonas aeruginosa ATCC 15692; experiment: as above; format: cell-based
Excerpt: as §1, §2, §3

[4] = system: Staphylococcus aureus ATCC 6538; experiment: as above; format: cell-based
Excerpt: as §1, §2, §3

[5] = system: Bacillus subtilis ATCC 6633; experiment: microbe, parasite or virus in culture; design: species or system bacteria; Broth microdilution MIC in Mueller-Hinton broth, absorbance at 620 nm; settings: ATCC6633, 24 h, read-out: Observed MIC, uM (B. subtilis)
Excerpt: as §3, with “Antibacterial properties of the synthesized compounds (3a–k, 5a–f, 7a–c, 9a–c, 11a–f, 13 and 15) were screened against Gram-positive (Staphylococcus aureus ATCC 6538, Bacillus subtilis ATCC 6633) and Gram-negative (Pseudomonas aeruginosa ATCC 15,692 and Escherichia coli ATCC 47076) bacteria utilizing the standard technique. Linezolid was used as a standard reference/drug in the current study. The tested bacterial strains were obtained from MERCIN Center, Faculty of Agriculture, Ain Shams University, Cairo, Egypt. To” for “To”

[6] = system: Staphylococcus aureus ATCC 6538; experiment: microbe, parasite or virus in culture; design: species or system bacteria; Broth microdilution MIC in Mueller-Hinton broth, absorbance at 620 nm; settings: ATCC6538, 24 h, read-out: Observed MIC, uM (S. aureus)
Excerpt: as §3, with “Antibacterial properties of the synthesized compounds (3a–k, 5a–f, 7a–c, 9a–c, 11a–f, 13 and 15) were screened against Gram-positive (Staphylococcus aureus ATCC 6538, Bacillus subtilis ATCC 6633) and Gram-negative (Pseudomonas aeruginosa ATCC 15,692 and Escherichia coli ATCC 47076) bacteria utilizing the standard technique. Linezolid was used as a standard reference/drug in the current study. The tested bacterial strains were obtained from MERCIN Center, Faculty of Agriculture, Ain Shams University, Cairo, Egypt. To” for “To”

[7] = Bacillus subtilis, ATCC6633, 24 h, Mueller–Hinton broth, 37 °C, 24 h, read-out: MIC, μg/mL ± SE, B. Subtilis (ATCC 6633)
[8] = ATCC47076, Mueller–Hinton broth, 37 °C, 24 h, read-out: MIC, μg/mL ± SE, E. Coli (ATCC 47076)
[9] = ATCC47076, value in parentheses, read-out: MIC (μmol), E. Coli (ATCC 47076) (converted)
[10] = ATCC15692, Mueller–Hinton broth, 37 °C, 24 h, read-out: MIC, μg/mL ± SE, P. Aeruginosa (ATCC 15692)
[11] = ATCC15692, value in parentheses, read-out: MIC (μmol), P. Aeruginosa (ATCC 15692) (converted)
[12] = Staphylococcus aureus, ATCC6538, 24 h, Mueller–Hinton broth, 37 °C, 24 h, read-out: MIC, μg/mL ± SE, S. Aureus (ATCC 6538)
[13] = Bacillus subtilis, ATCC6633, as quoted in running text, read-out: MIC against B. subtilis
[14] = Bacillus subtilis, ATCC6633, value in parentheses, read-out: MIC (μmol), B. Subtilis (ATCC 6633) (converted)
[15] = Staphylococcus aureus, ATCC6538, as quoted in running text, read-out: MIC against S. aureus
[16] = Staphylococcus aureus, ATCC6538, value in parentheses, read-out: MIC (μmol), S. Aureus (ATCC 6538) (converted)

MIC [1, 13] | MIC [1, 14] | MIC ([1]; read-out: MIC against B. subtilis) | MIC [4, 15] | MIC [4, 16] | MIC ([4]; read-out: MIC against S. aureus) | MIC ([3]; ATCC15692, read-out: MIC against P. aeruginosa) | SMILES | MIC [1, 7] | MIC [2, 8] | MIC [2, 9] | MIC [3, 10] | MIC [3, 11] | MIC [4, 12] | MIC [5] | MIC [6]
 |  |  |  |  |  |  | O=C(CNC(=O)OCc1ccccc1)NC[C@H]1CN(c2ccc(N3CCOCC3)c(F)c2)C(=O)O1 [Compound 3a, Benzyl (S)-(2-(((3-(3-fluoro-4-morpholinophenyl)-2-oxooxazolidin-5-yl)methyl)amino)-2-oxoethyl)carbamate] | 4 ± 0.3 µg/mL | 32 ± 1 µg/mL | 65.8 µM | 64 ± 1.4 µg/mL | 132 µM | 16 ± 2.1 µg/mL | 8.22 µM (≈ 4 µg/mL) | 32.9 µM (≈ 16 µg/mL)
 |  |  |  |  |  |  | C[C@H](NC(=O)OCc1ccccc1)C(=O)NC[C@H]1CN(c2ccc(N3CCOCC3)c(F)c2)C(=O)O1 [Compound 3b, Benzyl ((S)-1-((((S)-3-(3-fluoro-4-morpholinophenyl)-2-oxooxazolidin-5-yl)methyl)amino)-1-oxopropan-2-yl)carbamate] | 32 ± 2.1 µg/mL | 32 ± 2.5 µg/mL | 63.9 µM | 64 ± 1.9 µg/mL | 128 µM | 32 ± 1.5 µg/mL | 63.9 µM (≈ 32 µg/mL) | 63.9 µM (≈ 32 µg/mL)
 |  |  |  |  |  |  | CC(C)[C@H](NC(=O)OCc1ccccc1)C(=O)NC[C@H]1CN(c2ccc(N3CCOCC3)c(F)c2)C(=O)O1 [Compound 3c, Benzyl ((S)-1-((((S)-3-(3-fluoro-4-morpholinophenyl)-2-oxooxazolidin-5-yl)methyl)amino)-3-methyl-1-oxobutan-2-yl)carbamate] | 32 ± 2.7 µg/mL | 32 ± 1.6 µg/mL | 60.5 µM | 64 ± 2.9 µg/mL | 121 µM | 32 ± 1.1 µg/mL | 60.5 µM (≈ 32 µg/mL) | 60.5 µM (≈ 32 µg/mL)
 |  |  |  |  |  |  | CSCC[C@H](NC(=O)OCc1ccccc1)C(=O)NC[C@H]1CN(c2ccc(N3CCOCC3)c(F)c2)C(=O)O1 [Compound 3d, Benzyl ((S)-1-((((S)-3-(3-fluoro-4-morpholinophenyl)-2-oxooxazolidin-5-yl)methyl)amino)-4-(methylthio)-1-oxobutan-2-yl)carbamate] |  | 32 ± 2 µg/mL | 57.1 µM | 64 ± 3.1 µg/mL | 114 µM | 32 ± 1.6 µg/mL | 57.1 µM (≈ 32 µg/mL) | 57.1 µM (≈ 32 µg/mL)
 |  |  |  |  |  |  | CC(C)[C@H](NC(=O)OC(C)(C)C)C(=O)NC[C@H]1CN(c2ccc(N3CCOCC3)c(F)c2)C(=O)O1 [Compound 3h, Tert-butyl ((S)-1-((((S)-3-(3-fluoro-4-morpholinophenyl)-2-oxooxazolidin-5-yl)methyl)amino)-3-methyl-1-oxobutan-2-yl)carbamate] | 32 ± 0.7 µg/mL | 32 ± 1.1 µg/mL | 64.7 µM | 32 ± 0.5 µg/mL | 64.7 µM | 32 ± 1.3 µg/mL | 64.7 µM (≈ 32 µg/mL) | 64.7 µM (≈ 32 µg/mL)
 |  |  |  |  |  |  | CSCC[C@H](NC(=O)OC(C)(C)C)C(=O)NC[C@H]1CN(c2ccc(N3CCOCC3)c(F)c2)C(=O)O1 [Compound 3i, Tert-butyl ((S)-1-((((S)-3-(3-fluoro-4-morpholinophenyl)-2-oxooxazolidin-5-yl)methyl)amino)-4-(methylthio)-1-oxobutan-2-yl)carbamate] | 32 ± 1.4 µg/mL | 32 ± 0.5 µg/mL | 60.8 µM | 32 ± 0.8 µg/mL | 60.8 µM | 32 ± 2.1 µg/mL | 60.8 µM (≈ 32 µg/mL) | 60.8 µM (≈ 32 µg/mL)
 |  |  |  |  |  |  | CC[C@H](C)[C@H](NC(=O)OC(C)(C)C)C(=O)NC[C@H]1CN(c2ccc(N3CCOCC3)c(F)c2)C(=O)O1 [Compound 3k, Tert-butyl ((2S,3S)-1-((((S)-3-(3-fluoro-4-morpholinophenyl)-2-oxooxazolidin-5-yl)methyl)amino)-3-methyl-1-oxopentan-2-yl)carbamate] | 32 ± 1.3 µg/mL | 32 ± 2.1 µg/mL | 62.9 µM | 32 ± 1.3 µg/mL | 62.9 µM | 32 ± 2.1 µg/mL | 62.9 µM (≈ 32 µg/mL) | 62.9 µM (≈ 32 µg/mL)
2.33 to 2.5 µM | 2.4 µM | 2.396 µM | 9.34 to 10 µM | 9.58 µM | 9.583 µM |  | O=C(NC[C@H]1CN(c2ccc(N3CCOCC3)c(F)c2)C(=O)O1)c1ccc(F)cc1 [Compound 5b, (S)-4-Fluoro-N-((3-(3-fluoro-4-morpholinophenyl)-2-oxooxazolidin-5-yl)methyl) benzamide] | 1 ± 0.1 µg/mL | 32 ± 2.4 µg/mL | 76.7 µM | 32 ± 1.2 µg/mL | 76.7 µM | 4 ± 0.1 µg/mL |  | 
2.25 µM | 2.25 µM |  | 4.5 µM | 4.5 µM |  |  | O=C(NC[C@H]1CN(c2ccc(N3CCOCC3)c(F)c2)C(=O)O1)c1ccc([N+](=O)[O-])cc1 [Compound 5d, (S)-N-((3-(3-Fluoro-4-morpholinophenyl)-2-oxooxazolidin-5-yl)methyl)-4-nitro benzamide] | 1 ± 0.1 µg/mL | 32 ± 2.2 µg/mL | 72 µM | 32 ± 1.6 µg/mL | 72 µM | 2 ± 0.1 µg/mL |  | 
 |  |  |  |  |  |  | O=C1O[C@@H](CNCc2ccc(F)cc2)CN1c1ccc(N2CCOCC2)c(F)c1 [Compound 11a, (S)-3-(3-Fluoro-4-morpholinophenyl)-5-[{(4-fluorobenzyl)amino}methyl] oxazolidin-2-one] | 32 ± 1.2 µg/mL | 32 ± 2.5 µg/mL | 79.3 µM | 32 ± 2.2 µg/mL | 79.3 µM | 32 ± 2.7 µg/mL | 79.3 µM (≈ 32 µg/mL) | 79.3 µM (≈ 32 µg/mL)
 | 0.741 µM |  | 5.93 µM | 5.93 µM |  | 94.9 µM | CC(=O)NC[C@H]1CN(c2ccc(N3CCOCC3)c(F)c2)C(=O)O1 [Linezolid] | 0.25 ± 0.01 µg/mL | 8 ± 0.2 µg/mL | 23.7 µM | 32 ± 0.7 µg/mL | 94.9 µM | 2 ± 0.1 µg/mL |  | 

SMILES | MIC [1, 13] | MIC [1, 14] | MIC ([1]; read-out: MIC against B. subtilis) | MIC [4, 15] | MIC [4, 16] | MIC ([4]; read-out: MIC against S. aureus) | MIC ([3]; ATCC15692, read-out: MIC against P. aeruginosa) | MIC [1, 7] | MIC [2, 8] | MIC [2, 9] | MIC [3, 10] | MIC [3, 11] | MIC [4, 12] | MIC [5] | MIC [6]
O=C(NC[C@H]1CN(c2ccc(N3CCOCC3)c(F)c2)C(=O)O1)c1ccc(Cl)cc1 [Compound 5c, (S)-4-Chloro-N-((3-(3-fluoro-4-morpholinophenyl)-2-oxooxazolidin-5-yl)methyl) benzamide] | 4.61 to 5 µM | 4.61 µM |  |  |  |  |  | 2 ± 0.1 µg/mL | 32 ± 0.7 µg/mL | 73.8 µM | 32 ± 1.9 µg/mL | 73.8 µM | 8 ± 0.3 µg/mL |  | 18.4 µM (≈ 8 µg/mL)
